The NIST ThermoML archive (doi:10.1021/je900137r)

Assay: molar heat capacity at saturation pressure
Settings: Liquid, Vacuum adiabatic calorimetry

CCC [propane]
Settings	molar heat capacity [J/K/mol]
251.83 K	103.62
252.74 K	103.41
254.37 K	104.07
255.27 K	103.99
256.92 K	104.47
257.8 K	104.55
259.46 K	104.97
260.32 K	105.39
262 K	106
262.85 K	106.36
264.54 K	106.11
265.38 K	106.45
267.08 K	107.17
267.9 K	107.71
267.92 K	107.58
269.62 K	107.64
270.42 K	108.4
270.71 K	108.16
271.49 K	109.25
272.15 K	109.03
272.92 K	109.16
273.04 K	108.7
273.85 K	109.09
274.7 K	109.64
275.38 K	109.29
275.42 K	110.08
276.2 K	109.72
277.24 K	110.22
277.72 K	110.44
277.92 K	110.44
278.57 K	110.68
279.78 K	110.83
280.07 K	110.92
280.41 K	111.44
280.93 K	111.66
282.32 K	111.64
282.41 K	112.19
282.91 K	112.06
283.3 K	112.78
284.77 K	113.05
284.86 K	112.93
285.41 K	112.26
285.68 K	112.86
287.13 K	113.09
287.41 K	113.95
287.91 K	113.12
288.05 K	113.08
289.5 K	114.17
289.95 K	114.64
290.41 K	114.75
290.43 K	114.57
291.86 K	114.95
292.5 K	115.46
292.81 K	115.77
292.93 K	115.51
294.24 K	115.29
295.04 K	116.36
295.21 K	116
295.44 K	116.88
296.61 K	116.56
297.59 K	117.55
297.6 K	116.98
297.96 K	117.85
298.99 K	117.8
300 K	118.27
300.14 K	118.94
300.48 K	117.96
301.38 K	118.85
302.4 K	119.55
302.69 K	119.67
303.01 K	118.38
303.77 K	119.3
304.81 K	120.27
305.25 K	120.48
305.54 K	119.64
306.16 K	120.81
307.23 K	121.32
307.82 K	121.03
308.07 K	121.52
308.57 K	122.04
309.65 K	121.95
310.38 K	122.63
310.62 K	122.47
310.98 K	123.64
312.07 K	123.46
312.95 K	123.93
313.15 K	124.63
313.4 K	124.69
314.51 K	124.14
315.53 K	124.76
315.71 K	125.89
315.83 K	124.99
318.12 K	125.37
318.27 K	126.41
323.24 K	129.01
323.35 K	129.31
325.84 K	130.18
325.93 K	131.3
328.44 K	132.33
328.51 K	133.4
331.06 K	135.04
331.1 K	135.99
333.69 K	136.44
333.7 K	137.68
336.31 K	139.1
336.32 K	139.03
338.93 K	140.95
338.96 K	142.73
341.56 K	144.64
341.61 K	145.97
344.21 K	149.14
344.27 K	148.36
